Assay: in vitro
Conditions: human, hek293t cells
Description: Mammalian cytotoxicity measurement was performed using Cell Titer-Glo 2.0 Cell Viability Assay (Promega, G9243) according to the manufacturer protocol. In brief, mammalian cells were seeded into 384-well white plates (Greiner, 781080) and incubated at 37°C for one day. Compounds from the Cys-Library were dispensed into the assay plate using epMotion 96. The plates were then incubated at 37°C for two days. An equal volume of Cell Titer-Glo 2.0 reagent was added into each well of the assay plate using epMotion 96 and incubated at 22°C for 10 min, followed by luminescence measurement using a Cytation 5 plate reader (BioTek).

Compound	viability at 48 h, 25 µM [%]
C=CC(=O)N1CCN(C(=O)c2cc(C)no2)CC1 [1-N19, 1-[4-(3-methyl-1,2-oxazole-5-carbonyl)piperazin-1-yl]prop-2-en-1-one]	102
C=CC(=O)NCCNC(=O)[C@@]12CC[C@@](C)(C(=O)O1)C2(C)C [2-J18, N-(2-{[(1S,4R)-4,7,7-trimethyl-3-oxo-2-oxabicyclo[2.2.1]heptan-1-yl]formamido}ethyl)prop-2-enamide]	52.8
C=CC(=O)N(C)CC1(O)CCc2ccccc21 (stereo not shown) [3-D11, N-[(1-hydroxy-2,3-dihydro-1H-inden-1-yl)methyl]-N-methylprop-2-enamide]	58.6
CC(Cl)C(=O)N1Cc2ccccc2OCC1C (stereo not shown) [7-F11, 2-chloro-1-(3-methyl-2,3,4,5-tetrahydro-1,4-benzoxazepin-4-yl)propan-1-one]	86.6
CCOc1ccc(C=C(C#N)C(=O)Nc2nccs2)cc1 [9-C06, 2-cyano-3-(4-ethoxyphenyl)-N-(1,3-thiazol-2-yl)prop-2-enamide]	94.3
CC(Cl)C(=O)NC(=O)Nc1ccccc1 (stereo not shown) [5-I21, 3-(2-chloropropanoyl)-1-phenylurea]	92.7
CCc1cc(SC#N)cc(CC)c1NC(=O)CCl [4-J12, 2-chloro-N-[4-(cyanosulfanyl)-2,6-diethylphenyl]acetamide]	84.8
CCn1cc(CN(C)C(=O)C(C)Cl)nn1 (stereo not shown) [6-L22, 2-chloro-N-[(1-ethyl-1H-1,2,3-triazol-4-yl)methyl]-N-methylpropanamide]	94.7
O=C(CCl)c1ccoc1 [10-O09, 2-chloro-1-(furan-3-yl)ethan-1-one]	76.8
O=C(CCl)Nc1cc(S(=O)(=O)N2CCOCC2)ccc1Cl [6-H03, 2-chloro-N-[2-chloro-5-(morpholine-4-sulfonyl)phenyl]acetamide]	1.8
COC(=O)c1ccc2[nH]cc(C(=O)CCl)c2c1 [10-D05, methyl 3-(2-chloroacetyl)-1H-indole-5-carboxylate]	3.01
CC(=O)N(Cc1ncc(C(C)C)o1)C1CCN(C(=O)C(C)Cl)C1 (stereo not shown) [6-J07, N-[1-(2-chloropropanoyl)pyrrolidin-3-yl]-N-{[5-(propan-2-yl)-1,3-oxazol-2-yl]methyl}acetamide]	103
C=CC(=O)N1CCC[C@H]1c1ccon1 [2-G03, 1-[(2S)-2-(1,2-oxazol-3-yl)pyrrolidin-1-yl]prop-2-en-1-one]	181
CC(Cl)C(=O)Nc1ccc2c(c1)ncn2CCN(C)C (stereo not shown) [6-P15, 2-chloro-N-{1-[2-(dimethylamino)ethyl]-1H-1,3-benzodiazol-5-yl}propanamide]	113
N#CC(=Cc1cnn(Cc2ccccc2)c1)C(=O)NC1CCCC1 [9-O14, 3-(1-benzyl-1H-pyrazol-4-yl)-2-cyano-N-cyclopentylprop-2-enamide]	80.2
Cc1ccc(CN(Cc2c(C)noc2C)C(=O)CCl)c(C)c1 [5-N03, 2-chloro-N-[(3,5-dimethyl-1,2-oxazol-4-yl)methyl]-N-[(2,4-dimethylphenyl)methyl]acetamide]	1.14
COc1cc(C=C(C#N)C(=O)NC2CC2)ccc1O [9-G12, 2-cyano-N-cyclopropyl-3-(4-hydroxy-3-methoxyphenyl)prop-2-enamide]	110
CC(C)(CNC(=O)CCl)CC1CCOCC1 [6-C04, 2-chloro-N-[2,2-dimethyl-3-(oxan-4-yl)propyl]acetamide]	130
Cc1cc(S(=O)(=O)N(C)C)cc(NC(=O)CCl)c1C [4-H15, 2-chloro-N-[5-(dimethylsulfamoyl)-2,3-dimethylphenyl]acetamide]	1.33
O=C1CCc2cc(C(=O)CCl)c(F)cc2N1 [10-O20, 6-(2-chloroacetyl)-7-fluoro-1,2,3,4-tetrahydroquinolin-2-one]	11.9
N#CC(=Cc1cccc(F)c1)C(=O)NCCc1ccccc1 [8-J22, 2-cyano-3-(3-fluorophenyl)-N-(2-phenylethyl)prop-2-enamide]	103
CC(Cl)C(=O)NC1CCc2ccccc2-n2ccnc21 (stereo not shown) [7-E06, 2-chloro-N-{2,5-diazatricyclo[8.4.0.0,2,6]tetradeca-1(14),3,5,10,12-pentaen-7-yl}propanamide]	88.2
O=C(CCl)N1CCC(CCc2ccccc2)CC1 [6-G12, 2-chloro-1-[4-(2-phenylethyl)piperidin-1-yl]ethan-1-one]	1.05
C=CC(=O)Nc1cc(OC)ccc1C(=O)N(C)OC [1-J14, N,4-dimethoxy-N-methyl-2-(prop-2-enamido)benzamide]	74.9
O=C(CCl)Cc1ccc(C(F)(F)F)cc1 [10-C19, 1-chloro-3-[4-(trifluoromethyl)phenyl]propan-2-one]	1.02
C=CC(=O)NC1(c2ccccc2)CCCC1 [1-O15, N-(1-phenylcyclopentyl)prop-2-enamide]	95.6

Compound	viability at 48 h, 25 µM [%]
C=CC(=O)N(Cc1ccc(F)cn1)c1cnn(C2CCCC2)c1C [1-D11, N-(1-cyclopentyl-5-methyl-1H-pyrazol-4-yl)-N-[(5-fluoropyridin-2-yl)methyl]prop-2-enamide]	97.3
Cc1ccsc1C=C(C#N)C(=O)N1CCN(c2ccccc2)CC1 [8-B13, 3-(3-methylthiophen-2-yl)-2-(4-phenylpiperazine-1-carbonyl)prop-2-enenitrile]	92.4
C=CC(=O)NCc1nc(OC)cc(OC)n1 [2-M20, N-[(4,6-dimethoxypyrimidin-2-yl)methyl]prop-2-enamide]	99.2
O=C(CCl)Nc1ccc(S(=O)(=O)Nc2ccccc2)cc1 [5-K22, 2-chloro-N-[4-(phenylsulfamoyl)phenyl]acetamide]	1.09
COc1ccc2cc(CN(C)C(=O)CCl)ccc2c1 [4-A19, 2-chloro-N-[(6-methoxynaphthalen-2-yl)methyl]-N-methylacetamide]	-0.134
C=CC(=O)N1CCC(C(=O)NCc2cc(C)c[nH]c2=O)CC1 [3-H03, N-[(5-methyl-2-oxo-1,2-dihydropyridin-3-yl)methyl]-1-(prop-2-enoyl)piperidine-4-carboxamide]	81.3
Cc1nnnn1-c1ccc(F)c(NC(=O)CCl)c1 [6-E13, 2-chloro-N-[2-fluoro-5-(5-methyl-1H-1,2,3,4-tetrazol-1-yl)phenyl]acetamide]	1.24
CC(Cl)C(=O)NC(=O)NC1CCS(=O)(=O)C1 (stereo not shown) [4-J13, 3-(2-chloropropanoyl)-1-(1,1-dioxo-1lambda6-thiolan-3-yl)urea]	94.7
O=C(CCl)N(Cc1ccsc1)C1CC1 [5-N18, 2-chloro-N-cyclopropyl-N-[(thiophen-3-yl)methyl]acetamide]	1.23
C=CC(=O)NCC(c1c(F)cccc1F)N1CC(C)OC(C)C1 (stereo not shown) [1-I13, N-[2-(2,6-difluorophenyl)-2-(2,6-dimethylmorpholin-4-yl)ethyl]prop-2-enamide]	72.5
CC(Cl)C(=O)N1N=C(c2ccc(Cl)cc2)CC1c1ccco1 (stereo not shown) [5-H18, 2-chloro-1-[3-(4-chlorophenyl)-5-(furan-2-yl)-4,5-dihydro-1H-pyrazol-1-yl]propan-1-one]	78.1
C=CC(=O)N(Cc1ccc(OC)cc1)[C@@H]1CCCC[C@H]1O [2-M05, N-[(1R,2R)-2-hydroxycyclohexyl]-N-[(4-methoxyphenyl)methyl]prop-2-enamide]	97.6
C=CC(=O)NCc1cn2c(n1)CCCC2 [3-L20, N-({5H,6H,7H,8H-imidazo[1,2-a]pyridin-2-yl}methyl)prop-2-enamide]	103
N#CC(=Cc1cccc(F)c1F)C(=O)NC(N)=O [8-H04, {2-cyano-2-[(2,3-difluorophenyl)methylidene]acetyl}urea]	89.9
CC(Cl)C(=O)N1CCN(S(=O)(=O)c2ccccc2)CC1 (stereo not shown) [6-B12, 1-[4-(benzenesulfonyl)piperazin-1-yl]-2-chloropropan-1-one]	100
C=CC(=O)N(Cc1c(C)nn(CC)c1C)c1ccc2c(c1)COC2 [2-G13, N-(1,3-dihydro-2-benzofuran-5-yl)-N-[(1-ethyl-3,5-dimethyl-1H-pyrazol-4-yl)methyl]prop-2-enamide]	80.2
C=CC(=O)Nc1ccc(OC)cc1S(C)(=O)=O [1-C04, N-(2-methanesulfonyl-4-methoxyphenyl)prop-2-enamide]	65.8
COc1cc(C=C(C#N)C(=O)Nc2nccs2)cc(OC)c1 [9-J03, 2-cyano-3-(3,5-dimethoxyphenyl)-N-(1,3-thiazol-2-yl)prop-2-enamide]	104
O=C(CCl)Nc1ccccc1SCc1ccccc1 [4-J05, N-[2-(benzylsulfanyl)phenyl]-2-chloroacetamide]	0.437
CC(Cl)C(=O)Nc1ccc([N+](=O)[O-])cc1 (stereo not shown) [4-I18, 2-chloro-N-(4-nitrophenyl)propanamide]	86.7
CC1CCCCC1NC(=O)C(C#N)=Cc1ccc(N2CCOCC2)cc1 (stereo not shown) [8-I06, 2-cyano-N-(2-methylcyclohexyl)-3-[4-(morpholin-4-yl)phenyl]prop-2-enamide]	52.8
C=CC(=O)N1CCCC(CS(=O)(=O)NC)C1 (stereo not shown) [2-E18, N-methyl-1-[1-(prop-2-enoyl)piperidin-3-yl]methanesulfonamide]	95
O=C(CCl)NCCC1=CCCCC1 [4-H05, 2-chloro-N-[2-(cyclohex-1-en-1-yl)ethyl]acetamide]	20.9
O=C(CCl)N1C2CCC1c1ccccc12 [5-M11, 1-{11-azatricyclo[6.2.1.0,2,7]undeca-2,4,6-trien-11-yl}-2-chloroethan-1-one]	-0.105
Cc1cc(C=C(C#N)C(=O)Nc2cnn(C)c2)c(C)n1C1CCCCC1 [9-B17, 2-cyano-3-(1-cyclohexyl-2,5-dimethyl-1H-pyrrol-3-yl)-N-(1-methyl-1H-pyrazol-4-yl)prop-2-enamide]	96.1
C=CC(=O)N(CC)CC(=O)N1CCNC(=O)CC1c1ccccc1 (stereo not shown) [3-E21, N-ethyl-N-[2-oxo-2-(5-oxo-7-phenyl-1,4-diazepan-1-yl)ethyl]prop-2-enamide]	33.1

From article PMC11995724, “Antibiotic target discovery by integrated phenotypic and activity-based profiling of electrophilic fragments” (Cell chemical biology, 2025)
